# Measured values taken from patent US20250228835A1, “PYRIDINYLOXYPYRIDINES AND RELATED COMPOUNDS AND THEIR USE IN TREATING MEDICAL CONDITIONS” (Rectify Pharmaceuticals, Inc., priority 2024, published 2025).
# Target: T1, ABCD2 WT (Homo sapiens, UniProt Q9UBJ2)
# T1 construct: expressed in transfected cells
# T1 sequence (Q9UBJ2 1-740): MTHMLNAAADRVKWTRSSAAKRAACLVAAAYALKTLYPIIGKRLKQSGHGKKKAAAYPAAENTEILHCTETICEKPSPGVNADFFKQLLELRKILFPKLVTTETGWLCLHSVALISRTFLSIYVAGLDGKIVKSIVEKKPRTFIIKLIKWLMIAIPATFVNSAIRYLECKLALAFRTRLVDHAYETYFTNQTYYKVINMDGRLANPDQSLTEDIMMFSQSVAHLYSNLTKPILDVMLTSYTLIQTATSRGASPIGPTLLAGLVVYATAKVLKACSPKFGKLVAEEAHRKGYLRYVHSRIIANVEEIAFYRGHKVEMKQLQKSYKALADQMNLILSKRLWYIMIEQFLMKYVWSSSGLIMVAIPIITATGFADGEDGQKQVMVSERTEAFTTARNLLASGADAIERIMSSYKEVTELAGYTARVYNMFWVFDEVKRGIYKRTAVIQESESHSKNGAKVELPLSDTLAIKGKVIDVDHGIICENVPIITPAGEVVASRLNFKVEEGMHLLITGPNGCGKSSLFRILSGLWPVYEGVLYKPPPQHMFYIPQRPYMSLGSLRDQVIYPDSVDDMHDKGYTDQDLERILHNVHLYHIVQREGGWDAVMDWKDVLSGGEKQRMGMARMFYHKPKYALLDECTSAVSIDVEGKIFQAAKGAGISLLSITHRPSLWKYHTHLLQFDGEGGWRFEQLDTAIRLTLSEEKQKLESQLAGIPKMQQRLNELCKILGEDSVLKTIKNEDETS
# Assay: D2 correction dose-response assay: ABCD2 WT HiBit protein expression
# Format: cell-based
# Settings: HEK-293/ABCD2 WT cells, 24 hours treatment, HiBit luminescence; class combines EC50 and Mean MaxAct (fold); read-out: ABCD2 WT EC50, Emax
# Experimental: Exemplary compounds were evaluated in a D2 correction dose-response assay.
# To assess activity against ABCD2, the compounds were screened in an assay measuring protein expression, using cells transfected with cDNA encoding HiBit-tagged ABCD2 wild-type. Here we describe an assay for measuring the expression of the wild type of human ABCD2 (henceforth referred to as ABCD2 WT) and the use of this assay to measure the efficacy of compounds to increase the expression of ABCD2 WT. The assay was designed to characterize the efficacy and potency of compounds to increase the expression of ABCD2 WT by calculating an Emax and EC50 value. HEK-293 cells stably expressing ABCD2 WT (HEK-293/ABCD2 WT) were used for this assay and were maintained at 37° C. (5% CO2, humidified) in Dulbecco's Modified Eagle Medium (DMEM, Gibco product #12100) supplemented with 10% fetal bovine serum (Biosera product #FB-1058/500), 1% PenStrep (HDB product #15140-122), and 0.5 mg/mL puromycin (Gibco product #A11138-03). For the assay, the HEK-293/ABCD2 WT cells were seeded in white/opaque 384-well plates (Corning product #3570) at 10,000 cells/well in 20 μl growth medium and allowed to settle for 4 hours at 37° C. (5% CO2, humidified). Compound serial dilutions are prepared in DMSO as three hundred times (333×) the final concentration and using a dilution factor of 3 using Bravo (Agilent). After the four-hour incubation period, 60 nL of DMSO solutions are transferred to the assay plate.
# Dose response curves include eleven doses with the top final concentration at 30 μM in 0.3% DMSO. Liquid handling is performed with ECHO 550 Acoustic Liquid Handler (Labcyte). After addition of compound treatment, cells are incubated for 24 hours at 37° C. (5% CO2, humidified). After the 24-hour treatment, plates are allowed to equilibrate to room temperature for 10 minutes. Using Dragonfly Automated Liquid Handler (TTP LabTech), 20 μl of HiBit lytic assay reagent (Promega, product #N3040), which is prepared according to manufacturer's instructions, is added to each well. The plates are rotated at room temperature for 2 minutes and incubated for 1 hour at 25° C. before luminescent signal is acquired using an EnVision Multimode Plate Reader (PerkinElmer).
row,EC50 [µM],Compound
1,1 to 10,CNS(=O)(=O)c1ccc(-c2cncc(C#N)c2)nc1Oc1c(C)cc(C(F)(F)F)nc1C1CC1 [Compound I-293]
2,< 1,Cc1cc(C(F)(F)F)nc(C2CC2)c1Oc1nc(-c2cncc(C#N)c2)ccc1S(=O)(=O)Nc1cccnc1 [Compound I-294]
3,10 to 25,Cc1cc(C(F)(F)F)nc(C2CC2)c1Oc1nc(-c2cccc(C#N)c2)ccc1S(=N)(=O)C1CC1 (stereo not drawn) [Compound I-295]
4,< 1,Cc1nc(Oc2nc(-c3cncc(C#N)c3)ccc2NS(C)(=O)=O)c(C2CC2)s1 [Compound I-300]
5,10 to 25,Cc1cc(C(F)(F)F)nc(C2CC2)c1Oc1nc(-c2cncc(C#N)c2)ccc1S(=N)(=O)C1CCOCC1 (stereo not drawn) [Compound I-301]
6,1 to 10,Cc1cc(C(F)(F)F)nc(C2CC2)c1Oc1nc(-c2cncc(C#N)c2)ccc1S(=O)(=O)NC1COC1 [Compound I-305]
7,1 to 10,Cc1nc(C(F)(F)F)nc(C2CC2)c1Oc1nc(-c2cncc(C#N)c2)ccc1S(=O)(=O)Nc1cccnc1 [Compound I-310]
8,> 25,CNS(=O)(=O)c1ccc(-c2cncc(C#N)c2)nc1Oc1nc(C)sc1C1CC1 [Compound I-312]
9,> 25,Cc1nc(C(F)F)nc(C2CC2)c1Oc1nc(-c2cncc(C#N)c2)ccc1S(=O)(=O)NC1CC1 [Compound I-314]
10,10 to 25,Cc1cc(C)c(Oc2nc(-c3cccc(C#N)c3)ccc2S(=N)(=O)C2CC2)c(C)n1 (stereo not drawn) [Compound I-316]

# More lines, now with the values behind:
row,Compound,EC50 [µM]
1,Cc1cc(C(F)(F)F)nc(C2CC2)c1Oc1nc(-c2cncc(C#N)c2)ccc1S(=O)(=O)N1CCOCC1 [Compound I-290],> 25
2,Cc1cc(C(F)(F)F)nc(C2CC2)c1Oc1nc(-c2cncc(C#N)c2)ccc1S(=O)(=O)N(C)C [Compound I-291],1 to 10
3,Cc1nc(C(F)(F)F)nc(C2CC2)c1Oc1nc(-c2cncc(C#N)c2)ccc1S(=O)(=O)NC1CC1 [Compound I-292],1 to 10
4,Cc1cc(C(F)(F)F)nc(C2CC2)c1Oc1nc(-c2cncc(C#N)c2)ccc1S(=N)(=O)c1cccnn1 (stereo not drawn) [Compound I-296],< 1
5,Cc1cc(C(F)(F)F)nc(C2CC2)c1Oc1nc(-c2cncc(C#N)c2)ccc1S(=N)(=O)c1cnccn1 (stereo not drawn) [Compound I-297],1 to 10
6,CNS(=O)(=O)c1ccc(-c2cncc(C#N)c2)nc1Oc1c(C)cc(C2CC2)nc1C1CC1 [Compound I-298],1 to 10
7,Cc1sc(C2CC2)nc1Oc1nc(-c2cncc(C#N)c2)ccc1NS(C)(=O)=O [Compound I-299],< 1
8,Cc1cc(C(F)(F)F)nc(C2CC2)c1Oc1nc(-c2cncc(C#N)c2)ccc1S(=N)(=O)c1ccccn1 (stereo not drawn) [Compound I-302],10 to 25
9,Cc1nc(C(F)(F)F)nc(C2CC2)c1Oc1nc(-c2cncc(C#N)c2)ccc1S(=N)(=O)C1CC1 (stereo not drawn) [Compound I-303],> 25
10,Cc1cc(C(F)(F)F)nc(C2CC2)c1Oc1nc(-c2cncc(C#N)c2)ccc1S(=N)(=O)c1cccnc1 (stereo not drawn) [Compound I-304],< 1
11,Cc1cc(C(F)(F)F)nc(C2CC2)c1Oc1nc(-c2cncc(C#N)c2)ccc1S(=O)(=O)NC1CCOCC1 [Compound I-306],1 to 10
12,Cc1cc(C)c(Oc2nc(-c3c[nH]c(=O)c(C#N)c3)ccc2NS(C)(=O)=O)c(C)n1 [Compound I-307],1 to 10
13,CNS(=O)(=O)c1ccc(-c2cncc(C#N)c2)nc1Oc1nc(C2CC2)sc1C [Compound I-308],> 25
14,Cc1nc(C(F)(F)F)nc(C2CC2)c1Oc1nc(-c2cncc(C#N)c2)ccc1S(=O)(=O)Nc1cnn(C)c1 [Compound I-309],1 to 10
15,Cc1cc(C)[n+]([O-])c(C)c1Oc1nc(-c2cncc(C#N)c2)ccc1NS(C)(=O)=O [Compound I-311],1 to 10
16,CNS(=O)(=O)c1ccc(-c2cncc(C#N)c2)nc1Oc1c(C)nc(C(F)F)nc1C1CC1 [Compound I-313],> 25
17,CNS(=O)(=O)c1ccc(-c2cncc(C#N)c2)nc1Oc1c(C)nc(C(F)(F)F)nc1C1CC1 [Compound I-315],10 to 25
